Here are results for 7 compounds from patent US20250026759A1 (Merck Sharp & Dohme LLC, priority 2023, published 2025).

In the assay the test system is PBMCs infected with VSV-G pseudotyped HIV virus (VSV-G/pNLG1-P2A-ΔEnv). Kind of assay: cells. Format: cell-based, human. Conditions: read-out: TACK EC50.

The structures appear in SMILES notation. Like-named read-outs stand apart in the source and are kept apart here.

With `CC(F)(F)[C@@]1(C#CC2CC2)NC(=O)Nc2cc(Cn3cc(CCO)cn3)c(F)cc21` [Example 70, (S)-4-(cyclopropylethynyl)-4-(1,1-difluoroethyl)-6-fluoro-7-((4-(2-hydroxyethyl)-1H-pyrazol-1-yl)methyl)-3,4-dihydroquinazolin-2(1H)-one], the EC50 (Homo sapiens, PBMC) was found to be 50.7 nM.

Consider `CNc1ccn(Cc2cc3c(cc2F)[C@@](C#CC2CC2)(C(C)(F)F)NC(=O)N3)n1` [Example 75, (S)-4-(cyclopropylethynyl)-4-(1,1-difluoroethyl)-6-fluoro-7-((3-(methylamino)-1H-pyrazol-1-yl)methyl)-3,4-dihydroquinazolin-2(1H)-one], for which the 50% effective concentration (EC50) (Homo sapiens, PBMC) worked out at 36.9 nM. As to `COCc1ccn(Cc2cc3c(cc2F)[C@@](C#CC2CC2)(C(C)(F)F)N(C)C(=O)N3)n1` [Example 112, (S)-4-(cyclopropylethynyl)-4-(1,1-difluoroethyl)-6-fluoro-7-((3-(methoxymethyl)-1H-pyrazol-1-yl)methyl)-3-methyl-3,4-dihydroquinazolin-2(1H)-one], where the note is “Homo sapiens, PBMC”, the concentration for a half-maximal effect (EC50) worked out at 18.1 nM. As for `CC(O)c1ccn(Cc2cc3c(cc2F)[C@@](C#CC2CC2)(C(C)(F)F)NC(=O)N3)n1` (single isomer, unassigned) [Example 73, (S)-4-(cyclopropylethynyl)-4-(1,1-difluoroethyl)-6-fluoro-7-((3-((R or S)-1-hydroxyethyl)-1H-pyrazol-1-yl)methyl)-3,4-dihydroquinazolin-2(1H)-one], the concentration for a half-maximal effect (EC50) is 24.5 nM. In the case of `CC(F)(F)[C@@]1(C#CC2CC2)NC(=O)Nc2cc(CNC(=O)c3ncc[nH]3)c(F)cc21` [Example 79, (S)—N-((4-(cyclopropylethynyl)-4-(1,1-difluoroethyl)-6-fluoro-2-oxo-1,2,3,4-tetrahydroquinazolin-7-yl)methyl)-1H-imidazole-2-carboxamide], under “Homo sapiens, PBMC”, the concentration for a half-maximal effect (EC50) amounted to 9.2 nM.

As for `CC(F)(F)[C@@]1(C#CC2CC2)NC(=O)Nc2cc(Cn3ccc(OC(F)F)n3)c(F)cc21` [Example 63, (S)-4-(cyclopropylethynyl)-4-(1,1-difluoroethyl)-7-((3-(difluoromethoxy)-1H-pyrazol-1-yl)methyl)-6-fluoro-3,4-dihydroquinazolin-2(1H)-one], where the note is “Homo sapiens, PBMC”, the half-maximal effective concentration (EC50) was found to be 33.5 nM. Same read-out and setting: then `COc1cn(Cc2cc3c(cc2F)[C@@](C#CC2CC2)(C(C)(F)F)NC(=O)N3)nc1N` [Example 99, (S)-7-((3-amino-4-methoxy-1H-pyrazol-1-yl)methyl)-4-(cyclopropylethynyl)-4-(1,1-difluoroethyl)-6-fluoro-3,4-dihydroquinazolin-2(1H)-one], with 13.1 nM.
